Results published in US20090069324A1, “CHEMICAL INHIBITORS OF BFL-1 AND RELATED METHODS” (The Burnham Institute, priority 2007, published 2009).
“And” between values parts separate entries of the source, which are not always exact repeats. Identical values can stand only once.

Assays:
Bfl-1 [1] = target: T1, Bfl-1 (Homo sapiens, UniProt Q16548); assay: Bfl-1 TR-FRET assay (FITC-Bid, Tb-anti-GST antibody); type: binding
T1 construct: lacking their C-terminal transmembrane domains (approximately last 20 amino-acids); made in house; host or cells: XL-1 Blue cells (E. coli), pGEX 4T-1
T1 sequence (Q16548 1-155 limits assumed): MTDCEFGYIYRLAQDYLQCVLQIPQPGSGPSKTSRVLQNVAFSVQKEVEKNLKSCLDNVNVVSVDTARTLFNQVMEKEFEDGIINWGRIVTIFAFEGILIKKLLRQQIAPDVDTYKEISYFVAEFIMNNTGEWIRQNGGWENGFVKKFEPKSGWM
Protocol: TR-FRET assay. For confirmation of FPA results, a TR-FRET assay utilizing terbium- (Tb-) labeled anti-GST antibody (Th-Ab) was developed. […] The reaction mixture was preincubated for 1 h, and TR-fluorescence (TRF) was measured on an M5 plate reader (Molecular Devices) using excitation at 340 nm and emission at […]. The measurements were averaged from 5 readings during 1 ms after an initial delay 0.1 ms. TR-FRET signal was calculated as the ratio of TR-Fluorescence at 520 nm to TR-Fluorescence at […].
For Bfl-1 TR-FRET assays, Bfl-1 protein and FITC-Bid peptide (FITC-Ahx-[…]) (SEQ ID NO: 1) were utilized. Terbium-anti-GST antibody (Tb-anti-GST Ab) was obtained from Invitrogen (San Diego Calif.). The assay buffer contained 25 mM Bis-Tris, pH 7.0, 1 mM TCEP, and 0.005% Tween 20. The Tb-Ab buffer contained 2.5 nM Tb-anti-GST antibody in assay buffer. The Bfl-1/Th-Ab working solution contained 5 nM Bfl-1 in Th-Ab assay buffer. The solution was prepared fresh and kept on ice prior to use. The FITC-Bid working solution contained 5.6 nM FITC-Bid in assay buffer.
For the Bfl-1 TR-FRET dose-response screening protocol, dose-response curves contained 10 concentrations of compounds obtained using 2-fold serial dilution. Compounds were serially diluted in 100% DMSO, and then diluted with water to 10% final DMSO concentration. A 4 μl aliquot of compounds in 10% DMSO was transferred into columns 3-22 of Greiner 384-well white small-volume plates. Columns 1-2 and 23-24 contained 4 μL of 10% DMSO.
Columns 1-2 were reserved for positive controls, and 8 μL of Th-Ab buffer was added using a WellMate bulk dispenser (Matrix). An aliquot of 8 μL of Bfl-1/Th-Ab working solution was added to columns 3-24 of Greiner 384 well white plates using a WellMate bulk dispenser (Matrix). Columns 23-24 represented negative control wells. Plates were incubated for 1 h at 4° C. An 8 μL aliquot of freshly prepared FITC-Bid working solution was added to the whole plate using WellMate bulk dispenser (Matrix). Plates were incubated for 4 h at room temperature protected from direct light. Fluorescence was measured on the M5 plate reader (excitation: 340 nm, emission: 490 and 520 nm, cutoff: 475 and 515 nm, respectively) in Time Resolved (TR) mode with signal integrated for 1 ms after initial delay of 0.1 ms. TR-FRET signal was calculated as the ratio of TR-Fluorescence at 520 nm to TR-Fluorescence at 490 nm. Data analysis was performed using a sigmoidal dose-response equation through non-linear regression.

Bfl-1 [2] = target: T1, Bfl-1; assay: Bfl-1 fluorescence polarization assay (FPA/FP), competition with FITC-Bid BH3 peptide; type: binding
Protocol: Fluorescence polarization assays (FPA). To determine the binding affinity of anti-apoptotic Bcl-2 polypeptides to FITC-conjugated Bid BH3 peptide, fluorescence polarization assays (FPAs) were performed according to published procedures (Zhai et al., Biochem. J. 376:229-236 (2003)). […] Fluorescence polarization was measured after 10 min using an Analyst™ AD Assay Detection System (LJL Biosystem, Sunnyvale, Calif.) in phosphate-buffered saline (PBS) (pH 7.4). The IC50 determinations were performed using GraphPad Prism software (GraphPad, Inc., San Diego, Calif.).
Competition assays. Using the same procedure outlined above, 100 nM of GST-Bfl-1 protein were incubated with the compounds at 50 μM concentration for 30 min. Then, 5 nM of FITC-Bid BH3 peptide was added. Fluorescence polarization was measured after 10 min. […]

[3] = Tables 7-8, Avg where the cell lists several determinations, read-out: Bfl-1 TR-FRET IC50
[4] = Tables 7-8, single values listed before the Avg, read-out: Bfl-1 TR-FRET IC50 (uM), individual determinations
[5] = Tables 7-8, single values listed before the Avg, read-out: Bfl-1 FPA IC50 (uM), individual determinations
[6] = Tables 3-5, read-out: Bfl-1 TR FRET IC50
[7] = Tables 7-8, Avg where the cell lists several determinations
[8] = Tables 3-5, read-out: Bfl-1 FP IC50
[9] = Tables 7-8, Avg where the cell lists several determinations, read-out: Bfl-1 FPA IC50

| Compound | IC50 (Bfl-1 [1]; [3]) | IC50 (Bfl-1 [1]; [6]) | IC50 (Bfl-1 [2]; [8]) | further results |
| --- | --- | --- | --- | --- |
| CCOC(=O)CS(=O)(=O)c1nc(-c2ccc(F)cc2)cc(C(F)(F)F)n1 [Compound 7979975] | 1.78 µM | – | – | IC50 (Bfl-1 [1]; [4]): 1.37 µM and 0.59 µM and 1.5 µM and 2.79 µM and 1.03 µM and 3.41 µM; IC50 (Bfl-1 [2]; [5]): 1.98 µM and 1.27 µM and 0.695 µM and 1.72 µM and 0.866 µM and 3.33 µM and 4.4 µM and 6.43 µM |
| O=C1C(Cl)=C(N2CCCCC2)C(=O)N1c1ccc(Cl)c(Cl)c1 [MLS-0066990] | – | 1.3 µM | – | Bfl-1 FP IC50 (uM) (Bfl-1 [2]; Tables 3-5): no fit |
| CS(=O)(=O)c1nc(-c2ccccc2)cc(C(F)(F)F)n1 [Compound C164-0003] | – | – | – | Bfl-1 TR-FRET IC50 (uM) (Bfl-1 [1]; [7]): nodisplacement; Bfl-1 FPA IC50 (uM) (Bfl-1 [2]; [7]): nodisplacement |
| CC1C(=O)NCCN1C1=C(Cl)C(=O)N(c2ccc(Cl)c(Cl)c2)C1=O (centres unmarked) [MLS-0090884] | – | 2.03 µM | 5.63 µM | – |
| CN1CCN(C2=C(Cl)C(=O)N(c3cccc(Cl)c3)C2=O)CC1 [MLS-0090834] | – | 1.17 µM | 2.15 µM | – |
| COc1ccccc1-c1cc(C(F)(F)F)nc(S(=O)(=O)CCCC(=O)Nc2cc(C)on2)n1 [Compound C071-0415] | – | – | – | Bfl-1 TR-FRET IC50 (uM) (Bfl-1 [1]; [7]): nodisplacement; Bfl-1 FPA IC50 (uM) (Bfl-1 [2]; [7]): nodisplacement |
| CN1CCN(C2=C(Cl)C(=O)N(c3cc(Cl)cc(Cl)c3)C2=O)CC1 [MLS-0090828] | – | 1.66 µM | 2.44 µM | – |
| CN1CCN(C2CC(=O)N(c3ccc(Cl)c(Cl)c3)C2=O)CC1 (centres unmarked) [MLS-0066991] | – | – | – | Bfl-1 TR-FRET assay, activity in words (Bfl-1 [1]; Bfl-1/FITC-Bid): inactive; Bfl-1 FP assay, activity in words (Bfl-1 [2]; Bfl-1/FITC-Bid): inactive |
| CN1CCN(C2=C(Cl)C(=O)N(c3ccccc3Cl)C2=O)CC1 [MLS-0090833] | – | 1.45 µM | 2.16 µM | – |
| CN1CCN(C2=C(Cl)C(=O)N(c3cccc(Cl)c3Cl)C2=O)CC1 [MLS-0090831] | – | 2.56 µM | 8.74 µM | – |
| C[C@H]1CN(C2=C(Cl)C(=O)N(c3ccc(Cl)c(Cl)c3)C2=O)CCN1 [MLS-0090858] | – | 1.25 µM | 1.32 µM | – |
| O=C1C(Cl)=C(N2CCN(c3ncccn3)CC2)C(=O)N1c1ccc(Cl)c(Cl)c1 [MLS-0090868] | – | 2.46 µM | 1.9 µM | – |
| O=C1C(Cl)=C(N2CCCC2)C(=O)N1c1ccc(Cl)c(Cl)c1 [MLS-0067126] | – | – | – | Bfl-1 TR FRET IC50 (uM) (Bfl-1 [1]; Tables 3-5): no fit; Bfl-1 FP IC50 (uM) (Bfl-1 [2]; Tables 3-5): no fit |
| COc1ccc(-c2cc(C(F)(F)F)nc(S(C)(=O)=O)n2)c(OC)c1 [Compound C164-0014] | 6.38 µM | – | – | IC50 (Bfl-1 [1]; [4]): 5.29 µM and 3.73 µM and 10.1 µM; IC50 (Bfl-1 [2]; [9]): 25.1 µM; IC50 (Bfl-1 [2]; [5]): 40.7 µM and 5.92 µM and 27.2 µM and 28.8 µM and 22.9 µM |
| O=C1C(Cl)=C(N2CCOCC2)C(=O)N1c1ccc(Cl)c(Cl)c1 [MLS-0067124] | – | – | 1.41 µM | IC50 (Bfl-1 [1]; text b265, read-out: IC50 in the TR-FRET assay): 1.14 µM; IC50 (Bfl-1 [2]; text b265, read-out: IC50 in the FP assay): 1.4 µM |
| CS(=O)(=O)c1nc(-c2cccs2)cc(C(F)(F)F)n1 [Compound C164-0005] | 15.6 µM | – | – | IC50 (Bfl-1 [2]; [9]): 6.3 µM |
| CCN1CCN(C2=C(Cl)C(=O)N(c3ccc(Cl)c(Cl)c3)C2=O)CC1 [MLS-0090860] | – | 0.97 µM | 1.67 µM | – |
| COc1ccc(N2C(=O)C(Cl)=C(Nc3c(C)n(C)n(-c4ccccc4)c3=O)C2=O)cc1 [Compound 3453-0809] | > 100 µM | – | – | IC50 (Bfl-1 [2]; [9]): 82.2 µM |
| Cc1cc(NC(=O)CCCS(=O)(=O)c2nc(-c3cccs3)cc(C(F)(F)F)n2)no1 [Compound C071-0649] | 11.4 µM | – | – | IC50 (Bfl-1 [2]; [9]): 40.4 µM |
| Cc1cc(NC(=O)CCS(=O)(=O)c2nc(-c3ccccc3)cc(C(F)(F)F)n2)no1 [Compound 7979496] | 9.2 µM | – | – | IC50 (Bfl-1 [2]; [9]): 14.6 µM |
